These results are taken from publication PMC12037410, “Pharmacological targeting of BMAL1 modulates circadian and immune pathways” (Nature Chemical Biology, 2025).

Chain of BMAL1 (O00327 338-449): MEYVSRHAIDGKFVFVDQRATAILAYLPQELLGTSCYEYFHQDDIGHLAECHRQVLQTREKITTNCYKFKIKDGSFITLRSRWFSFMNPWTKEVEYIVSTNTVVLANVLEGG

This test has as its target BMAL1 (Homo sapiens, UniProt O00327). On the set-up: PASB domain (residues 338–449); Protein thermal shift (PTS) fragment screen on recombinant human BMAL1(PASB), shift of melting temperature. Conditions: dTmB; binder.
As to `FC(F)(F)c1nnc2n1CCNC2` [Prestw-Frag-3253, Compound 136], the “Bmal1(PASB) dTmB” value worked out at 0.11 °C.

Consider `Oc1ccccc1C1CCCC1` [Prestw-Frag-2706, Compound 472], for which the “Bmal1(PASB) dTmB” value was -2.14 °C.

In the case of `Oc1ccccc1N1CCNCC1` [Prestw-Frag-3738, Compound 34], the “Bmal1(PASB) dTmB” value was 0.10 °C.

As for `Cc1n[nH]c(C)c1N` [Prestw-Frag-3724, Compound 23], the “Bmal1(PASB) dTmB” value is -1.19 °C.

As for `CC(C)(Oc1ccccc1)C(=O)O` [Prestw-Frag-1053, Compound 221], the “Bmal1(PASB) dTmB” value is 0.07 °C.

For the molecule `Cc1cn[nH]c1C` [Prestw-Frag-1408, Compound 109], the “Bmal1(PASB) dTmB” value is -1.01 °C.

On to `Cc1ccccc1Nc1ncccc1C(=O)O` [Prestw-Frag-2806, Compound 441], for which the “Bmal1(PASB) dTmB” value amounted to 0.29 °C.

As for `NC(=O)N1CCNCC1` [Prestw-Frag-3723, Compound 152], the “Bmal1(PASB) dTmB” value amounted to 0.03 °C.

Take `O=c1ccn([C@H]2C[C@H](O)[C@@H](CO)O2)c(=O)[nH]1` [Prestw-Frag-2769, Compound 275]: the “Bmal1(PASB) dTmB” value amounted to 0.09 °C.

Take `c1cnccn1` [Prestw-Frag-2501, Compound 209]: the “Bmal1(PASB) dTmB” value worked out at 0.00 °C.

For the molecule `CN1CCN(c2ccc(N)cc2)CC1` [Prestw-Frag-3670, Compound 20], the “Bmal1(PASB) dTmB” value turned out to be 0.65 °C.

With `c1ccc(N2CCNCC2)nc1` [Prestw-Frag-1110, Compound 364], the “Bmal1(PASB) dTmB” value was -0.48 °C.

`Nc1ccc(Cl)nn1` [Prestw-Frag-1184, Compound 263]: the “Bmal1(PASB) dTmB” value is -0.26 °C.

On to `NC1CCc2[nH]c3ccccc3c2C1` (stereo not drawn) [Prestw-Frag-3709, Compound 361], for which the “Bmal1(PASB) dTmB” value amounted to 1.14 °C.

As to `C#Cc1cccc(N)c1` [Prestw-Frag-3669, Compound 7], the “Bmal1(PASB) dTmB” value is -3.75 °C.

Turning to `NC(=O)c1ccncc1` [Prestw-Frag-2587, Compound 181], the “Bmal1(PASB) dTmB” value was found to be 0.25 °C.

For `Cc1cccc(C)c1N` [Prestw-Frag-2313, Compound 365], the “Bmal1(PASB) dTmB” value was -0.18 °C.

Take `Nc1ccn([C@H]2C[C@H](O)[C@@H](CO)O2)c(=O)n1` [Prestw-Frag-3264, Compound 107]: the “Bmal1(PASB) dTmB” value was -0.01 °C.

In the case of `OCC1CCNCC1` [Prestw-Frag-3727, Compound 325], the “Bmal1(PASB) dTmB” value was determined as 0.08 °C.

On to `CCOc1ccccc1OCC1CNCCO1` (stereo not drawn) [Prestw-Frag-2992, Compound 332], for which the “Bmal1(PASB) dTmB” value is -0.48 °C.

Regarding `CN(C)Cc1ccc(CSCCN)o1` [Prestw-Frag-1889, Compound 8], the “Bmal1(PASB) dTmB” value is -2.44 °C.

As to `COc1ccc2c(c1)OCC2=O` [Prestw-Frag-1362, Compound 212], the “Bmal1(PASB) dTmB” value was -0.12 °C.

With `c1ccc(CC2CCNCC2)cc1` [Prestw-Frag-1868, Compound 296], the “Bmal1(PASB) dTmB” value is -0.76 °C.

With `O=C1c2ccc(Cl)cc2CCc2cccnc21` [Prestw-Frag-3073, Compound 431], the “Bmal1(PASB) dTmB” value was -4.79 °C.

For `COc1ccc(O)cc1O` [Prestw-Frag-2499, Compound 11], the “Bmal1(PASB) dTmB” value came to 0.28 °C.

Take `c1ccc(-n2ccnc2)cc1` [Prestw-Frag-3744, Compound 409]: the “Bmal1(PASB) dTmB” value was -0.78 °C.

Turning to `NC1CCc2ccccc21` (stereo not drawn) [Prestw-Frag-3462, Compound 90], the “Bmal1(PASB) dTmB” value is -0.81 °C.

For `NCCOC(c1ccc(F)cc1)c1ccc(F)cc1` [Prestw-Frag-1925, Compound 448], the “Bmal1(PASB) dTmB” value is -1.45 °C.

`CCOc1ccc(N)cc1` [Prestw-Frag-2201, Compound 146]: the “Bmal1(PASB) dTmB” value was -0.64 °C.

For the molecule `Cc1ccccc1C(=O)Nc1ccccc1` [Prestw-Frag-3202, Compound 39], the “Bmal1(PASB) dTmB” value was -1.32 °C.

Consider `CC1CCC(=O)O1` (stereo not drawn) [Prestw-Frag-3757, Compound 251], for which the “Bmal1(PASB) dTmB” value is -0.06 °C.

On to `O=C1COc2ccccc21` [Prestw-Frag-1361, Compound 165], for which the “Bmal1(PASB) dTmB” value was -0.13 °C.

In the case of `Nc1ncnc2c1ncn2CCO` [Prestw-Frag-3329, Compound 91], the “Bmal1(PASB) dTmB” value was -0.48 °C.

`NC(=O)COc1ccccc1` [Prestw-Frag-2578, Compound 235]: the “Bmal1(PASB) dTmB” value was -0.19 °C.

As for `c1ccc2c(c1)NCCO2` [Prestw-Frag-3732, Compound 54], the “Bmal1(PASB) dTmB” value worked out at 0.57 °C.

For the molecule `COc1ccc(CC(C)N)cc1` (stereo not drawn) [Prestw-Frag-3342, Compound 241], the “Bmal1(PASB) dTmB” value is -0.24 °C.

Consider `CCCC(=O)Nc1ccc(O)c(C(C)=O)c1` [Prestw-Frag-1716, Compound 95], for which the “Bmal1(PASB) dTmB” value was -1.04 °C.

On to `O=C1CNCN1` [Prestw-Frag-3718, Compound 116], for which the “Bmal1(PASB) dTmB” value was -0.07 °C.

As to `COc1ccc(C(F)(F)F)cc1` [Prestw-Frag-2108, Compound 203], the “Bmal1(PASB) dTmB” value was -0.12 °C.

Consider `OC(c1ccccc1)c1ccccn1` (stereo not drawn) [Prestw-Frag-2238, Compound 262], for which the “Bmal1(PASB) dTmB” value is -0.66 °C.

Take `Cc1cc(C(C)(C)CC(C)(C)C)ccc1O` [Prestw-Frag-1016, Compound 351]: the “Bmal1(PASB) dTmB” value was found to be 0.69 °C.

For `CCCOc1ccccc1C(=N)N` [Prestw-Frag-1910, Compound 398], the “Bmal1(PASB) dTmB” value is -0.43 °C.

Take `c1ccc(C2CCCNCC2)cc1` (stereo not drawn) [Prestw-Frag-3712, Compound 230]: the “Bmal1(PASB) dTmB” value is -0.85 °C.

For `O=C(O)CCc1ncc(-c2ccccc2)o1` [Prestw-Frag-2693, Compound 126], the “Bmal1(PASB) dTmB” value turned out to be 0.10 °C.

`Oc1cccc2c1CCCC2` [Prestw-Frag-1156, Compound 412]: the “Bmal1(PASB) dTmB” value is -1.05 °C.

`COc1cc(N)ncn1` [Prestw-Frag-1154, Compound 185]: the “Bmal1(PASB) dTmB” value was -0.03 °C.

For `CC(C)NCC(O)c1ccccc1` (stereo not drawn) [Prestw-Frag-2168, Compound 193], the “Bmal1(PASB) dTmB” value is -0.58 °C.

As to `O=C1c2ccccc2CN1c1ccccc1` [Prestw-Frag-2360, Compound 56], the “Bmal1(PASB) dTmB” value is -0.56 °C.

As to `NC(=O)C(c1ccccc1)c1ccccc1` [Prestw-Frag-2366, Compound 415], the “Bmal1(PASB) dTmB” value was -0.76 °C.

Regarding `O=C1CNCCN1` [Prestw-Frag-3458, Compound 117], the “Bmal1(PASB) dTmB” value was -0.43 °C.

In the case of `Cc1nc2ccccc2[nH]1` [Prestw-Frag-2136, Compound 408], the “Bmal1(PASB) dTmB” value was -0.37 °C.

For `O=C(O)c1cc(-c2ccccc2)ccc1O` [Prestw-Frag-1240, Compound 74], the “Bmal1(PASB) dTmB” value is -0.48 °C.

As for `NNCCc1ccccc1` [Prestw-Frag-1818, Compound 31], the “Bmal1(PASB) dTmB” value was -1.46 °C.

For `CC(C)(CN)c1ccccc1` [Prestw-Frag-3733, Compound 285], the “Bmal1(PASB) dTmB” value was -0.30 °C.

In the case of `N#CCC(=O)N1CCCCC1` [Prestw-Frag-3730, Compound 302], the “Bmal1(PASB) dTmB” value came to 0.12 °C.

Take `Clc1ccc(-c2cncnc2)cc1` [Prestw-Frag-1704, Compound 385]: the “Bmal1(PASB) dTmB” value was -1.51 °C.

In the case of `O=c1ccc2ccccc2o1` [Prestw-Frag-1000, Compound 307], the “Bmal1(PASB) dTmB” value was -0.26 °C.

For `O=C(c1ccccc1)c1ccccc1` [Prestw-Frag-1860, Compound 423], the “Bmal1(PASB) dTmB” value was -0.99 °C.

With `O=C(CCN1CCCCC1)c1ccccc1` [Prestw-Frag-1953, Compound 479], the “Bmal1(PASB) dTmB” value was -3.22 °C.

Regarding `C[C@@H](O)c1cc(C(F)(F)F)cc(C(F)(F)F)c1` [Prestw-Frag-2849, Compound 236], the “Bmal1(PASB) dTmB” value is -0.34 °C.

As for `COC(=O)C1=C(C)NC(C)=C(C(=O)OC)C1` [Prestw-Frag-1547, Compound 26], the “Bmal1(PASB) dTmB” value was -1.89 °C.

With `N#Cc1ccc[nH]c1=O` [Prestw-Frag-2408, Compound 346], the “Bmal1(PASB) dTmB” value is -0.07 °C.

`O=C(O)CC[C@H](NC(=O)c1ccccc1)C(=O)O` [Prestw-Frag-1499, Compound 195]: the “Bmal1(PASB) dTmB” value came to 0.09 °C.

Consider `O=C(O)c1ccc(Oc2ccccc2)cc1` [Prestw-Frag-1968, Compound 155], for which the “Bmal1(PASB) dTmB” value is -0.89 °C.

`Cc1c(C)c2c(c(C)c1O)CCC(C)(C)O2` [Prestw-Frag-2185, Compound 438]: the “Bmal1(PASB) dTmB” value was determined as 1.30 °C.

In the case of `Cn1cc(CC(=O)O)c2ccccc21` [Prestw-Frag-3461, Compound 75], the “Bmal1(PASB) dTmB” value is -0.44 °C.

Take `OC(Cn1ccnc1)c1ccc(Cl)cc1Cl` (stereo not drawn) [Prestw-Frag-1182, Compound 411]: the “Bmal1(PASB) dTmB” value was -0.85 °C.

In the case of `CCN(CC)CCNc1ccccc1` [Prestw-Frag-1993, Compound 214], the “Bmal1(PASB) dTmB” value is -0.30 °C.

`CNCCc1c[nH]c2ccccc12` [Prestw-Frag-1356, Compound 318]: the “Bmal1(PASB) dTmB” value is -0.40 °C.

In the case of `CCOC(=O)c1cccnc1` [Prestw-Frag-3382, Compound 96], the “Bmal1(PASB) dTmB” value is -0.50 °C.

`O=C(O)CC1CCCCC1` [Prestw-Frag-3668, Compound 169]: the “Bmal1(PASB) dTmB” value stood at 0.13 °C.

As to `Nc1nc2ccc(C(=O)c3ccccc3)cc2[nH]1` [Prestw-Frag-1471, Compound 466], the “Bmal1(PASB) dTmB” value was -1.29 °C.

As for `CCc1cccc2c(CCO)c[nH]c12` [Prestw-Frag-1299, Compound 129], the “Bmal1(PASB) dTmB” value is -0.11 °C.

`c1ccc(CN2CCNCC2)cc1` [Prestw-Frag-2215, Compound 424]: the “Bmal1(PASB) dTmB” value was -0.38 °C.

Consider `NCC(O)COc1cccc2ccccc12` (stereo not drawn) [Prestw-Frag-1389, Compound 450], for which the “Bmal1(PASB) dTmB” value stood at 1.58 °C.

In the case of `Cc1cc(=O)n(-c2ccc(C)c(C)c2)[nH]1` [Prestw-Frag-3221, Compound 342], the “Bmal1(PASB) dTmB” value is 1.18 °C.

On to `NS(=O)(=O)c1cc(C(=O)O)ccc1Cl` [Prestw-Frag-2051, Compound 160], for which the “Bmal1(PASB) dTmB” value was 0.10 °C.

In the case of `COc1ccc(CCN)cc1OC` [Prestw-Frag-3454, Compound 202], the “Bmal1(PASB) dTmB” value is -0.13 °C.
